# Reference: patent US7708989B2, “Methods of treating vascular diseases characterized by nitric oxide insufficiency” (NitroMed, Inc., priority 1999, dated 2010)
# “Also recorded” adds a separate entry of the source.
# Key:
# [1] = cited from earlier work
# conduit arteries = test: Conduit vessel function by brachial ultrasound technique (nitroglycerin-mediated dilation); type: in vivo, human; conditions: for NTG-response (%): mean ± SD
# Text: The effects of hypertension and race on conduit vessel function were examined using a well-established brachial ultrasound technique (Vita et al, Lanzer & Lipton, Eds., Diagnostics of Vascular Diseases: Principles and Technology. Berlin:Springer-Verlag, pp.249-259 (1996)) in 370 patients (178 black, 192 white). […] Further, systolic blood pressure was inversely correlated with flow-mediated dilation (r=−0.30, P<0.001) and nitroglycerin-mediated dilation (r=−0.33, P<0.001). Diastolic pressure correlated to a similar extent with vascular function. By multiple linear regression analysis, vessel size and systolic blood pressure were the only independent predictors of flow-mediated dilation in this sizable group of patients.
# forearm microvessels [2] = test: Forearm blood flow responses by venous occlusion plethysmography in normotensive white and black patients; type: in vivo, human; conditions: 46 normotensive white and black patients matched for age and gender
# Protocol: FIGS. 3A and 3B show forearm blood flow responses to nitroprusside (FIG. 3A) and methacholine (FIG. 3B) that were assessed by venous occlusion plethysmography in 25 white and 21 black patients without hypertension.
# To investigate the issue of whether NO deficiency is a primary or secondary phenomenon in hypertensive black patients, 46 normotensive white and black patients who were matched for age and gender were compared. […] These findings are consistent with recently published results by other investigators (Lang et al, N EngI J Med, 333:155-160 (1995); Cardillo et al, Hypertension 31:1235-1239 (1998)).
# forearm microvessels [3] = test: Forearm blood flow responses to intra-arterial infusions by venous occlusion plethysmography in white and black hypertensive patients; type: in vivo, human; conditions: intra-arterial infusion
# forearm microvessels [4] = test: Forearm microvascular vasodilator responses in salt-sensitive versus salt-resistant normotensive black patients; type: in vivo, human
# Protocol: To explore the relation between salt-sensitivity and endothelium-derived NO action in black patients prior to the development of hypertension, the blood pressure response to salt-loading and salt-deprivation using an established inpatient protocol (Weinberger et al, Hypertension, 8:II-127-II-134 (1986)) in a group of normotensive black patients was assessed. Briefly, blood pressure was continuously monitored non-invasively during a salt load (sodium 458 mEq over 24 hours) and during a period of salt depletion (furosemide treatment and sodium intake 10 mEq over 24 hours). Patients were considered to be salt-sensitive if mean blood pressure was at least 10 mm Hg higher during the salt loading period (Weinberger et al, Hypertension, 8:II-127-II-134 (1986)).
smiles,measurement,setting,value
"O=[N+]([O-])O[C@H]1CO[C@H]2[C@@H]1OC[C@H]2O[N+](=O)[O-] [isosorbide dinitrate, 1,4,3,6-dianhydro-D-glucitol-2,5-dinitrate]",solubility in organic solvents,"[1]; organic solvents such as ethanol, ether and chloroform",freely soluble
same,solubility in water,[1]; water,sparingly soluble
O=[N+]([O-])OCC(CO[N+](=O)[O-])O[N+](=O)[O-] [nitroglycerin],nitroglycerin-mediated dilation according to race,"conduit arteries; 370 patients (178 black, 192 white)",no significant differences
same,NTG-response (%),"conduit arteries; Black Patients, Hypertensive, p < 0.001 compared to race matched normotensives",16.4 ± 7.1 %
same,NTG-response (%),"conduit arteries; Black Patients, Normotensive",20.6 ± 8.4%
same,NTG-response (%),"conduit arteries; White Patients, Hypertensive, p < 0.001 compared to race matched normotensives",14.6 ± 6.2 %
same,NTG-response (%),"conduit arteries; White Patients, Normotensive",18.1 ± 8.1%
same,effect of hypertension on nitroglycerin-mediated dilation,conduit arteries; hypertensive versus normotensive patients,highly significant reduction
CC(=O)OC(C)C[N+](C)(C)C (stereo not shown) [methacholine],"vasodilator response, black compared to white normotensive patients",forearm microvessels [2],no racial difference; also recorded: not significantly different
same,"vasodilator (forearm blood flow) response, black compared to white hypertensive patients",forearm microvessels [3]; 36 white and black hypertensive patients,impaired; also recorded: markedly worse
same,"dilator response, hypertensive patients compared to age-matched normotensive controls",forearm microvessels [3]; hypertensive versus normotensive controls,significantly reduced
same,"vasodilator response, salt-sensitive compared to salt-resistant patients","forearm microvessels [4]; normotensive black patients, repeated measures ANOVA",trends for impaired vasodilator responses
COc1ccc(CCN(C)CCCC(C#N)(c2ccc(OC)c(OC)c2)C(C)C)cc1OC (stereo not shown) [verapamil],"vasodilator response, salt-sensitive compared to salt-resistant patients","forearm microvessels [4]; human, in vivo",equivalent
